Data taken from patent publication EP2818471A1, “Nitrogen bicyclic compounds as inhibitors for Scyl1 and Grk5” (Max-Planck-Gesellschaft zur Förderung der Wissenschaften …, priority 2013, dated 2014).

The molecules below were run on beta-TC6 cells (assay: Insulin HTRF assay, relative activity Ar normalized to sunitinib). Conditions: Mus musculus, normalized to positive control sunitinib (5 µM = 100%), Table 10.
Format: cell-based
Text: For further screening of compounds derived from compounds described above for their ability to regulate insulin release an insulin HTRF® (Homogeneous Time-Resolved Fluorescence; Cisbio International, France) was used. This assay is based on two antibodies against insulin binding to different epitopes of insulin. One of these antibodies is coupled to Europium (Ab-Eu-Cryptate) and the other one to the fluorophore XL665 (Ab-XL665). Is insulin secreted into the supernatant of cell culture both antibodies can bind to insulin and come therefore into close proximity which allows upon excitation that energy transfer between (FRET) the long-life fluorescent donor Europium (cryptate) and the acceptors XL665. FRET increases proportionally with insulin concentration.
The automated assay protocol is as follows: • On day 1 15k beta-TC6 cells per well were seeded for 24 or 48 h in 50 µl complete medium. On day 2 or respective on day 3 the medium is removed and cells are washed with 60 µl 1xPBS and 20 µl induction buffer is added using BioTek washer. Subsequently, 10 µl Sunitininb (5 µM f.c.) or the test compound in induction buffer; 0.5% f.c. DMSO (CyBi-well) is transferred to the cells. The cells are then incubated at 37°C for 2, 3, 4h.
The HTRF assay is carried out using Greiner 384-well 784075 assay plates. First 10 µl supernatant is transferred from the cell plates in HTRF plates (CyBi-well). 10 µl of 0, 1, 2, and 4 ng/ml Insulin standard controls in assay medium is used as a control. To each well 10 µl of combined 1:25 Ab-XL665 (Acc) and 1:20 Ab-Eu-Cryptate (WellMate) are added and incubated for 120 min at RT in the dark. Finally HTRF is measured on ViewLux ultra high throughput microplate imager (PerkinElmer).
The evaluation software DataFactoty derives relative activities Ar according to the following equation: Ar = (V-R(0%control))/(R(100%control) -R(0%control)) × 100 [formula] […]
The activity of the compounds was classified according to their Ar (relative activity) into the following ranges: Ar ≥ 100% + + + +; 50% ≤ Ar < 100% + + +; 20% ≤ Ar < 50% + +; 10% < Ar < 20% + [formula] Table 10. Ar (relative activity) values of inventive compounds

Structure (SMILES)	Emax
CC(=O)Nc1ccc(-c2cnc3ccc(-c4ccc5c(c4)OCO5)nn23)cc1 [compound 148, N-[4-[6-(1,3-benzodioxol-5-yl)imidazo[1,2-b]pyridazin-3-yl]phenyl]acetamide]	≥ 100%
CC(=O)Nc1ccc(-c2cnc3ccc(-c4ccc(S(C)(=O)=O)cc4)nn23)cc1 [compound 149, N-[4-[6-(4-methylsulfonylphenyl)imidazo[1,2-b]pyridazin-3-yl]phenyl]acetamide]	10 to 20%
CC(=O)c1cccc(-c2cnc3ccc(-c4ccc(N)nc4)nn23)c1 [compound 153, 1-[3-[6-(6-amino-3-pyridyl)imidazo[1,2-b]pyridazin-3-yl]phenyl]ethanone]	20 to 50%
CN(C)c1cccc(-c2ccc3ncc(-c4cccs4)n3n2)c1 [compound 155, N,N-dimethyl-3-[3-(2-thienyl)imidazo[1,2-b]pyridazin-6-yl]aniline]	20 to 50%
Fc1ccc(-c2ccc3ncc(-c4cccs4)n3n2)cc1Cl [compound 156, 6-(3-chloro-4-fluoro-phenyl)-3-(2-thienyl)imidazo[1,2-b]pyridazine]	20 to 50%
COc1cc(-c2ccc3ncc(-c4cccs4)n3n2)ccc1O [compound 157, 2-methoxy-4-[3-(2-thienyl)imidazo[1,2-b]pyridazin-6-yl]phenol]	20 to 50%
Clc1ccccc1-c1ccc2ncc(-c3cccs3)n2n1 [compound 158, 6-(2-chlorophenyl)-3-(2-thienyl)imidazo[1,2-b]pyridazine]	10 to 20%
CS(=O)(=O)Nc1cccc(-c2cnc3ccc(Cc4ccc(F)cc4)nn23)c1 [compound 159, N-[3-[6-[(4-fluorophenyl)methyl]imidazo[1,2-b]pyridazin-3-yl]phenyl]methanesulfonamide]	10 to 20%
Nc1ccc(-c2cnc3ccc(Cc4ccccc4)nn23)cn1 [compound 161, 5-(6-benzylimidazo[1,2-b]pyridazin-3-yl)pyridin-2-amine]	20 to 50%
CN(C)/C(=C1\N=C(c2ccccc2)OC1=O)c1cnc2cccnn12 [compound 162, (4Z)-4-[dimethylamino(imidazo[1,2-b]pyridazin-3-yl)methylene]-2-phenyl-oxazol-5-one]	10 to 20%
c1ccc(-c2nnc3ccc(-c4ccc5c(c4)OCO5)cn23)cc1 [compound 164, 6-(1,3-benzodioxol-5-yl)-3-phenyl-[1,2,4]triazolo[4,3-a]pyridine]	50 to 100%
CC(=O)Nc1cccc(-c2ccc3nnc(-c4ccccc4)n3c2)c1 [compound 165, N-[3-(3-phenyl-[1,2,4]triazolo[4,3-a]pyridin-6-yl)phenyl]acetamide]	50 to 100%
COc1ccc(-c2ccc3nnc(-c4ccccc4)n3c2)c(C)c1 [compound 166, 6-(4-methoxy-2-methyl-phenyl)-3-phenyl-[1,2,4]triazolo[4,3-a]pyridine]	≥ 100%
C(#Cc1ccccn1)c1ccc2nnc(-c3ccccc3)n2c1 [compound 167, 3-phenyl-6-[2-(2-pyridyl)ethynyl]-[1,2,4]triazolo[4,3-a]pyridine]	50 to 100%
CN(C)CC#Cc1ccc2nnc(-c3ccccc3)n2c1 [compound 168, N,N-dimethyl-3-(3-phenyl-[1,2,4]triazolo[4,3-a]pyridin-6-yl)prop-2-yn-1-amine]	10 to 20%
CS(=O)(=O)Nc1cccc(-c2ccc3nnc(-c4ccccc4)n3c2)c1 [compound 169, N-[3-(3-phenyl-[1,2,4]triazolo[4,3-a]pyridin-6-yl)phenyl]methanesulfonamide]	50 to 100%
Clc1cccc(-c2ccc3nnc(-c4ccc5c(c4)OCO5)n3c2)c1 [compound 170, 3-(1,3-benzodioxol-5-yl)-6-(3-chlorophenyl)-[1,2,4]triazolo[4,3-a]pyridine]	20 to 50%
c1cc(-c2ccc3nnc(-c4ccc5c(c4)OCO5)n3c2)co1 [compound 171, 3-(1,3-benzodioxol-5-yl)-6-(3-furyl)-[1,2,4]triazolo[4,3-a]pyridine]	50 to 100%
Cn1cncc1C#Cc1ccc2nnc(-c3ccc4c(c3)OCO4)n2c1 [compound 172, 3-(1,3-benzodioxol-5-yl)-6-[2-(3-methylimidazol-4-yl)ethynyl]-[1,2,4]triazolo[4,3-a]pyridine]	20 to 50%
OCC#Cc1ccc2nnc(-c3ccc4c(c3)OCO4)n2c1 [compound 173, 3-[3-(1,3-benzodioxol-5-yl)-[1,2,4]triazolo[4,3-a]pyridin-6-yl]prop-2-yn-1-ol]	20 to 50%

Structure (SMILES)	Emax
Cn1cc(-c2ccc3nnc(-c4ccc5c(c4)OCO5)n3c2)cn1 [compound 174, 3-(1,3-benzodioxol-5-yl)-6-(1-methylpyrazol-4-yl)-[1,2,4]triazolo[4,3-a]pyridine]	50 to 100%
CNC(=O)c1cccc(-c2ccc3nnc(-c4ccc5c(c4)OCO5)n3c2)c1 [compound 175, 3-[3-(1,3-benzodioxol-5-yl)-[1,2,4]triazolo[4,3-a]pyridin-6-yl]-N-methyl-benzamide]	20 to 50%
c1cc(-c2nnc3ccc(-c4ccc(N5CCOCC5)cc4)cn23)ccn1 [compound 176, 4-[4-[3-(4-pyridyl)-[1,2,4]triazolo[4,3-a]pyridin-6-yl]phenyl]morpholine]	20 to 50%
COc1ccc(-c2ccc3nnc(-c4ccncc4)n3c2)cc1OC [compound 177, 6-(3,4-dimethoxyphenyl)-3-(4-pyridyl)-[1,2,4]triazolo[4,3-a]pyridine]	20 to 50%
FC(F)(F)Oc1cccc(-c2ccc3nnc(-c4ccncc4)n3c2)c1 [compound 178, 3-(4-pyridyl)-6-[3-(trifluoromethoxy)phenyl]-[1,2,4]triazolo[4,3-a]pyridine]	20 to 50%
OCc1ccc(-c2ccc3nnc(-c4ccncc4)n3c2)cc1 [compound 179, [4-[3-(4-pyridyl)-[1,2,4]triazolo[4,3-a]pyridin-6-yl]phenyl]methanol]	20 to 50%
FC(F)(F)c1cccc(C#Cc2ccc3nnc(-c4ccncc4)n3c2)c1 [compound 180, 3-(4-pyridyl)-6-[2-[3-(trifluoromethyl)phenyl]ethynyl]-[1,2,4]triazolo[4,3-a]pyridine]	10 to 20%
c1ccc(Oc2cccc(-c3ccc4nnc(-c5ccncc5)n4c3)c2)cc1 [compound 181, 6-(3-phenoxyphenyl)-3-(4-pyridyl)-[1,2,4]triazolo[4,3-a]pyridine]	20 to 50%
CN(C)c1ccc(-c2ccc3nnc(-c4cccnc4)n3c2)cc1 [compound 182, N,N-dimethyl-4-[3-(3-pyridyl)-[1,2,4]triazolo[4,3-a]pyridin-6-yl]aniline]	50 to 100%
CC(C)c1cccc(-c2ccc3nnc(-c4cccnc4)n3c2)c1 [compound 183, 6-(3-isopropylphenyl)-3-(3-pyridyl)-[1,2,4]triazolo[4,3-a]pyridine]	50 to 100%
Clc1ccccc1-c1ccc2nnc(-c3cccnc3)n2c1 [compound 184, 6-(2-chlorophenyl)-3-(3-pyridyl)-[1,2,4]triazolo[4,3-a]pyridine]	50 to 100%
COc1ccc(-c2nnc3ccc(-c4cccc(N(C)C)c4)cn23)cc1OC [compound 185, 3-[3-(3,4-dimethoxyphenyl)-[1,2,4]triazolo[4,3-a]pyridin-6-yl]-N,N-dimethyl-aniline]	50 to 100%
COc1ccc(-c2nnc3ccc(-c4ccc(S(C)(=O)=O)cc4)cn23)cc1OC [compound 186, 3-(3,4-dimethoxyphenyl)-6-(4-methylsulfonylphenyl)-[1,2,4]triazolo[4,3-a]pyridine]	10 to 20%
COc1ccc(-c2nnc3ccc(-c4cccc(F)c4)cn23)cc1OC [compound 187, 3-(3,4-dimethoxyphenyl)-6-(3-fluorophenyl)-[1,2,4]triazolo[4,3-a]pyridine]	≥ 100%
COc1ccc(-c2nnc3ccc(-c4cccc(C(=O)N(C)C)c4)cn23)cc1OC [compound 188, 3-[3-(3,4-dimethoxyphenyl)-[1,2,4]triazolo[4,3-a]pyridin-6-yl]-N,N-dimethyl-benzamide]	50 to 100%
COc1ccc(-c2nnc3ccc(C#Cc4ccncc4)cn23)cc1OC [compound 190, 3-(3,4-dimethoxyphenyl)-6-[2-(4-pyridyl)ethynyl]-[1,2,4]triazolo[4,3-a]pyridine]	50 to 100%
COc1ccc(-c2nnc3ccc(-c4cccs4)cn23)cc1OC [compound 191, 3-(3,4-dimethoxyphenyl)-6-(2-thienyl)-[1,2,4]triazolo[4,3-a]pyridine]	50 to 100%
COc1cncc(-c2ccc3nnc(-c4cccc(OC(F)(F)F)c4)n3c2)c1 [compound 192, 6-(5-methoxy-3-pyridyl)-3-[3-(trifluoromethoxy)phenyl]-[1,2,4]triazolo[4,3-a]pyridine]	50 to 100%
CS(=O)(=O)c1cccc(-c2ccc3nnc(-c4cccc(OC(F)(F)F)c4)n3c2)c1 [compound 193, 6-(3-methylsulfonylphenyl)-3-[3-(trifluoromethoxy)phenyl]-[1,2,4]triazolo[4,3-a]pyridine]	50 to 100%
